Laboratory results published in patent US11548868B2, “Heterocyclic compounds, compositions comprising heterocyclic compound, and methods of use thereof” (JS INNOPHARM (SHANGHAI) LTD, priority 2017, dated 2023).

What was measured:
[1] = molecular target: T1, TDO2 in A172 cancer cells (Homo sapiens, UniProt P48775); test: TDO2 Cellular Assay (kynurenine production in A172 cancer cells); format: cell-based; details: L-Trp 1 mM, 24 hours incubation, kynurenine at 490 nm
T1 construct: endogenous in cells; host or cells: A172 cancer cells
T1 sequence (P48775 whole entry): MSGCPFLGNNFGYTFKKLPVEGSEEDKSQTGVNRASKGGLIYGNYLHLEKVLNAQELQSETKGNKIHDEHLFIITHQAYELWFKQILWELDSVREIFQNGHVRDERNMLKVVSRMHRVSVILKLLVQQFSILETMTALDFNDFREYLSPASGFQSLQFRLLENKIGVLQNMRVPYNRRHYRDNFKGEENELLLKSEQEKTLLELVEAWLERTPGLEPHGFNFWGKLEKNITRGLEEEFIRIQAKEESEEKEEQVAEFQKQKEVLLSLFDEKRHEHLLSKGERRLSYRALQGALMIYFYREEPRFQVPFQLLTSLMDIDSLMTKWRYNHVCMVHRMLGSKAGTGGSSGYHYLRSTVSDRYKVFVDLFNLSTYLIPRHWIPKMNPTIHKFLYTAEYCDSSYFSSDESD
Summary of the method: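 Kynurenine output of A172 cells was read colorimetrically at 490 nm (Ehrlich reagent after TCA hydrolysis at 50 °C). Cells had 1 mM L-Trp plus compound at 0–25 μM in 0.25% DMSO for 24 h; IC50 values were fitted non-linearly from percent inhibition relative to vehicle.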

[2] = molecular target: T2, IDO1 in Hela cancer cells (Homo sapiens, UniProt P14902); test: IDO1 Cellular Assay (kynurenine production in IFN-γ stimulated Hela cancer cells); format: cell-based; details: human IFN-γ 50 ng/mL, 48 hours incubation, kynurenine at 490 nm
T2 construct: endogenous in cells; host or cells: Hela cancer cells stimulated with human IFN-γ
T2 sequence (P14902 whole entry): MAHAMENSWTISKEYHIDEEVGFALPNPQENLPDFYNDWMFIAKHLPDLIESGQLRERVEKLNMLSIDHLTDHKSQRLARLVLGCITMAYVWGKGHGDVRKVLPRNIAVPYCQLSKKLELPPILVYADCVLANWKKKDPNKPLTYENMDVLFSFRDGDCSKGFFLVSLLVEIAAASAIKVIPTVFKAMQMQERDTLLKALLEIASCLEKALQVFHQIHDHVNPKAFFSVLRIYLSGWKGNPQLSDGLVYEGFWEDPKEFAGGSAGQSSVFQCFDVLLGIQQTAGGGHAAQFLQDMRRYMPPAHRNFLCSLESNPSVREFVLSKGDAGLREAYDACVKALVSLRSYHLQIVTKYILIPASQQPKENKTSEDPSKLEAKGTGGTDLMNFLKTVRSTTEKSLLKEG
Summary of the method: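 HeLa cells stimulated with 50 ng/mL IFN-γ (final) and treated 48 h with compound (0–25 μM final, 0.25% DMSO). Supernatant kynurenine measured after TCA hydrolysis and p-dimethylaminobenzaldehyde reaction at 490 nm; inhibition vs DMSO control, IC50 by non-linear regression.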

Row | Compound | IC50 [1] [µM] | IC50 [2] [µM]
1 | O=S(=O)(c1ccccc1)N1C[C@@H]2C[C@@](O)(c3cc(Cl)cc4cn[nH]c34)C[C@@H]2C1 [Example 102, (3aR,5r,6aS)-5-(5-chloro-1H-indazol-7-yl)-2-(phenylsulfonyl)octahydrocyclopenta[c]pyrrol-5-ol] | > 5 | > 5
2 | CS(=O)(=O)Nc1cccc(C(=O)N[C@H]2[C@@H]3C[C@@](O)(c4cc(Cl)cc5[nH]ncc45)C[C@@H]32)c1 [Example 141, N-((1R,3r,5S,6r)-3-(6-chloro-1H-indazol-4-yl)-3-hydroxybicyclo[3.1.0]hexan-6-yl)-3-(methylsulfonamido)benzamide] | 0.5 to 1 | > 5
3 | O=C(C1CC1)N1C[C@@H]2C[C@@](O)(c3cc(Cl)cc4[nH]ncc34)C[C@@H]2C1 [Example 38, ((3aR,5r,6aS)-5-(6-chloro-1H-indazol-4-yl)-5-hydroxyhexahydrocyclopenta[c]pyrrol-2(1H)-yl)(cyclopropyl)methanone] | ≤ 0.5 | > 5
4 | O=C(C1CCOCC1)N1C[C@@H]2C[C@@](O)(c3cc(Cl)cc4cn[nH]c34)C[C@@H]2C1 [Example 97, ((3aR,5r,6aS)-5-(5-chloro-1H-indazol-7-yl)-5-hydroxyhexahydrocyclopenta[c]pyrrol-2(1H)-yl)(tetrahydro-2H-pyran-4-yl)methanone] | > 5 | > 5
5 | CS(=O)(=O)N1C[C@@H]2C[C@@](O)(c3c(Cl)ccc4cncn34)C[C@@H]2C1 [Example 53, (3aR,5r,6aS)-5-(6-chloroimidazo[1,5-a]pyridin-5-yl)-2-(methylsulfonyl)octahydrocyclopenta[c]pyrrol-5-ol] | 1 to 5 | > 5
6 | CC(=O)N1C[C@@H]2CN(c3cc(C(F)(F)F)cc4cncn34)C[C@@H]2C1(C)C (racemic) [Example 51, Racemic-1-((3aS,6aR)-1,1-dimethyl-5-(7-(trifluoromethyl)imidazo[1,5-a]pyridin-5-yl)hexahydropyrrolo[3,4-c]pyrrol-2(1H)-yl)ethanone] | > 5 | > 5
7 | C#Cc1cccc(C(=O)N[C@H]2[C@@H]3C[C@@](O)(c4cc(Cl)cc5[nH]ncc45)C[C@@H]32)c1 [Example 174, N-((1R,3r,5S,6r)-3-(6-chloro-1H-indazol-4-yl)-3-hydroxybicyclo[3.1.0]hexan-6-yl)-3-ethynylbenzamide] | ≤ 0.5 | ≤ 0.5
8 | O=C(NC1CCCCC1)N[C@H]1[C@@H]2C[C@@](O)(c3cc(Cl)cc4[nH]ncc34)C[C@@H]21 [Example 126, 1-((1R,3r,5S,6r)-3-(6-chloro-1H-indazol-4-yl)-3-hydroxybicyclo[3.1.0]hexan-6-yl)-3-cyclohexylurea] | ≤ 0.5 | > 5
9 | O=C(N[C@H]1[C@@H]2C[C@@](O)(c3cc(Cl)cc4[nH]ncc34)C[C@@H]21)c1cncc(Br)c1 [Example 170, 5-bromo-N-((1R,3r,5S,6r)-3-(6-chloro-1H-indazol-4-yl)-3-hydroxybicyclo[3.1.0]hexan-6-yl)nicotinamide] | ≤ 0.5 | ≤ 0.5
10 | NC(=O)c1cccc(C(=O)N[C@H]2[C@@H]3C[C@@](O)(c4cc(Cl)cc5[nH]ncc45)C[C@@H]32)c1 [Example 157, N1-((1R,3r,5S,6r)-3-(6-chloro-1H-indazol-4-yl)-3-hydroxybicyclo[3.1.0]hexan-6-yl)isophthalamide] | ≤ 0.5 | > 5

Now from value to compound:

Row | IC50 [1] [µM] | IC50 [2] [µM] | Compound
11 | ≤ 0.5 | > 5 | COc1ccccc1-c1c[nH]cc1C(=O)N[C@H]1[C@@H]2C[C@@](O)(c3cc(Cl)cc4[nH]ncc34)C[C@@H]21 [Example 127, N-((1R,3r,5S,6r)-3-(6-chloro-1H-indazol-4-yl)-3-hydroxybicyclo[3.1.0]hexan-6-yl)-4-(2-methoxyphenyl)-1H-pyrrole-3-carboxamide]
12 | ≤ 0.5 | ≤ 0.5 | O=C(N[C@H]1[C@@H]2C[C@@](O)(c3cc(Cl)cc4[nH]ncc34)C[C@@H]21)c1ccc(Cl)cc1 [Example 119, 4-chloro-N-((1R,3r,5S,6r)-3-(6-chloro-1H-indazol-4-yl)-3-hydroxybicyclo[3.1.0]hexan-6-yl)benzamide]
13 | ≤ 0.5 | > 5 | N#Cc1ccc(S(=O)(=O)N2C[C@@H]3C[C@@](O)(c4cc(Cl)cc5[nH]ncc45)C[C@@H]3C2)cc1 [Example 39, 4-(((3aR,5r,6aS)-5-(6-chloro-1H-indazol-4-yl)-5-hydroxyhexahydrocyclopenta[c]pyrrol-2(1H)-yl)sulfonyl)benzonitrile]
14 | ≤ 0.5 | ≤ 0.5 | CNS(=O)(=O)N[C@H]1[C@@H]2C[C@@](O)(c3cc(Cl)cc4[nH]ncc34)C[C@@H]21 [Example 9, N′-methyl-N-((1R,3r,5S,6r)-3-(6-chloro-1H-indazol-4-yl)-3-hydroxybicyclo[3.1.0]hexan-6-yl)sulfuric diamide]
15 | ≤ 0.5 | 0.5 to 1 | O=C(N[C@H]1[C@@H]2C[C@@](O)(c3cc(Cl)cc4[nH]ncc34)C[C@@H]21)c1ccncc1 [Example 83, N-((1R,3r,5S,6r)-3-(6-chloro-1H-indazol-4-yl)-3-hydroxybicyclo[3.1.0]hexan-6-yl)isonicotinamide]
16 | ≤ 0.5 | ≤ 0.5 | O=C(N[C@H]1[C@@H]2C[C@@](O)(c3cc(Cl)cc4[nH]ncc34)C[C@@H]21)c1cccnc1 [Example 148, N-((1R,3r,5S,6r)-3-(6-chloro-1H-indazol-4-yl)-3-hydroxybicyclo[3.1.0]hexan-6-yl)nicotinamide]
17 | ≤ 0.5 | 1 to 5 | O=C(Nc1ccc(F)cc1)N[C@H]1[C@@H]2C[C@@](O)(c3cc(Cl)cc4[nH]ncc34)C[C@@H]21 [Example 147, 1-((1R,3r,5S,6r)-3-(6-chloro-1H-indazol-4-yl)-3-hydroxybicyclo[3.1.0]hexan-6-yl)-3-(4-fluorophenyl)urea]
18 | ≤ 0.5 | 0.5 to 1 | CS(=O)(=O)N[C@H]1[C@@H]2C[C@@](O)(c3cc(Cl)cc4[nH]ncc34)C[C@@H]21 [Example 63, N-((1R,3r,5S,6r)-3-(6-chloro-1H-indazol-4-yl)-3-hydroxybicyclo[3.1.0]hexan-6-yl)methanesulfonamide]
19 | ≤ 0.5 | > 5 | CS(=O)(=O)N[C@H]1C[C@@H]2C[C@@](O)(c3cc(Cl)cc4[nH]ncc34)C[C@@H]2C1 [Example 3, N-((2r,3aR,5r,6aS)-5-(6-chloro-1H-indazol-4-yl)-5-hydroxyoctahydropentalen-2-yl)methanesulfonamide]
20 | ≤ 0.5 | 1 to 5 | O[C@@H]1C[C@@H]2C[C@@](O)(c3cc(Cl)cc4[nH]ncc34)C[C@@H]2C1 [Example 32, (2r,3aR,5s,6aS)-2-(6-chloro-1H-indazol-4-yl)octahydropentalene-2,5-diol]
21 | ≤ 0.5 | 1 to 5 | CS(=O)(=O)c1cccc(C(=O)N[C@H]2[C@@H]3C[C@@](O)(c4cc(Cl)cc5[nH]ncc45)C[C@@H]32)c1 [Example 153, N-((1R,3r,5S,6r)-3-(6-chloro-1H-indazol-4-yl)-3-hydroxybicyclo[3.1.0]hexan-6-yl)-3-(methylsulfonyl)benzamide]
